Marks after values point to notes of the source that are not given here.

A short description of data set [1]: Particle size distribution of O/W emulsions with Accusizer 780 Optical Particle Sizer. As to conditions: O/W emulsion; footnote c: measured with Accusizer 780 Optical Particle Sizer. In kind it is physicochemical. The method, then:
In an exemplary method of preparation, 180 mg of the surfactant was dissolved in 9 mL of ultrapure water (MilliQ), then 1 mL of Perfluorodecalin was added to the solution. The mixture was sonicated using an UP400St Hielscher ultrasonic homogenizer. Operation parameters of the device: A=90% (amplitude), continuous operation mode, sonotrode type—H14. The process of ultrasonic homogenization was carried out for about 2 minutes, while the reaction vessel was intensely cooled using an ice bath. 10 mL of the o/w emulsion with 10% v/v of the perfluorinated phase relative to the aqueous phase was obtained. As can be appreciated, this method is merely exemplary, and other methods or preparation approaches may be used.
The emulsion particle size distribution was determined using the Accusizer 780 Optical Particle Sizer PSS NICOMP device. A series of dilutions of the analyzed emulsion were prepared: 10-fold, 100-fold and 1000-fold with ultrapure water (MilliQ), in triplicate. The particle size distribution of the 1000-fold diluted emulsion was examined, a minimum of 3 measurements were taken, preparing approximately 30 mL of the diluted emulsion for each one of them. The results were presented by the several values: the average diameter (given in μm), and the percentage number of particles in different ranges (for example, in the diameter range 0.5-2 μm, 2-5 μm, 5-10 μm, >10 μm). The values from these three measurements were averaged and standard deviation was calculated.

Data set [2] relates to HMEC-1 human vascular endothelial cells.
In data set [3] the test system is L929 and HMEC-1 cell lines.

In the case of `O=C([O-])CCC(=O)OCCC(F)(F)C(F)(F)C(F)(F)C(F)(F)C(F)(F)C(F)(F)C(F)(F)C(F)(F)F.[Na+]` [2jNa], the Average diameter in data set [1] is recorded as 820 ± 20 ^c nm. The “Maximum Non-Cytotoxic Concentration L929” value in the data set on L929 mouse fibroblasts is recorded as less than 0.25%. Besides, the “Maximum Non-Cytotoxic Concentration HMEC-1” value in data set [2] is listed as 0.5%. The “Maximum Non-Hemolytic Concentration” value with blood was found to be 1%.

For the molecule `O=C([O-])CCC(=O)OCCC(F)(F)C(F)(F)C(F)(F)C(F)(F)C(F)(F)C(F)(F)F.[K+]` [2iK], the Average diameter in data set [1] is listed as 880 ± 40 ^c nm. The “Maximum Non-Cytotoxic Concentration L929” value in the data set on L929 mouse fibroblasts is listed as <0.25** %. For the same molecule, the “Maximum Non-Cytotoxic Concentration HMEC-1” value in data set [2] is on record as 0.25%. The “Maximum Non-Hemolytic Concentration” value in the data set on blood was found to be 0.02%.

For the molecule `O=C(O)CCCC(=O)OCCC(F)(F)C(F)(F)C(F)(F)C(F)(F)C(F)(F)C(F)(F)C(F)(F)C(F)(F)F` [2l3k], the “Maximum Non-Cytotoxic Concentration L929” value in the data set on L929 mouse fibroblasts is recorded as greater than 1.00%. The “Maximum Non-Cytotoxic Concentration HMEC-1” value in data set [2] is on record as greater than 1.00%. In addition, the “Maximum Non-Hemolytic Concentration” value in the data set on blood is reported as greater than 2.00%. In data set [3], the Cytotoxic potential entry is given as “low cytotoxic potential”.

In the case of `O=C(O)CSCCC(F)(F)C(F)(F)C(F)(F)C(F)(F)C(F)(F)C(F)(F)C(F)(F)C(F)(F)F` [2a3b], the Average diameter in data set [1] was 640 ± 10 ^c nm. Further, the “Maximum Non-Cytotoxic Concentration L929” value in the data set on L929 mouse fibroblasts was determined as 0.5%. In addition, in data set [2], the “Maximum Non-Cytotoxic Concentration HMEC-1” value worked out at 0.5%. The “Maximum Non-Hemolytic Concentration” value with blood is 0.25%.

As for `O=C([O-])CCC(=O)OCCC(F)(F)C(F)(F)C(F)(F)C(F)(F)C(F)(F)C(F)(F)C(F)(F)C(F)(F)F.[K+]` [2jK], in data set [1], the Average diameter is 1090 ± 10 ^c nm. In addition, the “Maximum Non-Cytotoxic Concentration L929” value with L929 mouse fibroblasts is less than 0.25%. Further, the “Maximum Non-Cytotoxic Concentration HMEC-1” value in data set [2] came to 0.5%. Moreover, the “Maximum Non-Hemolytic Concentration” value in the data set on blood is reported as greater than 2.00%.

On to `O=C(O)CSCCC(F)(F)C(F)(F)C(F)(F)C(F)(F)C(F)(F)C(F)(F)C(F)(F)C(F)(F)F` [2a3d], for which the Average diameter in data set [1] is recorded as 640 ± 10 ^c nm. In the data set with L929 mouse fibroblasts, the “Maximum Non-Cytotoxic Concentration L929” value was 0.2%. In data set [2], the “Maximum Non-Cytotoxic Concentration HMEC-1” value was 0.1%. Further, in the data set on blood, the “Maximum Non-Hemolytic Concentration” value was 0.02%.

On to `O=C([O-])CSCCC(F)(F)C(F)(F)C(F)(F)C(F)(F)C(F)(F)C(F)(F)C(F)(F)C(F)(F)F.[K+]` [2aK], for which the Average diameter in data set [1] is 770 ± 20 ^c nm. Besides, the “Maximum Non-Cytotoxic Concentration L929” value with L929 mouse fibroblasts stood at 1%. Moreover, the “Maximum Non-Cytotoxic Concentration HMEC-1” value in data set [2] is on record as 1%. In the data set with blood, the “Maximum Non-Hemolytic Concentration” value is greater than 2.00%.

Consider `O=C([O-])CSCCC(F)(F)C(F)(F)C(F)(F)C(F)(F)C(F)(F)C(F)(F)C(F)(F)C(F)(F)F.[Na+]` [2cNa], for which the Average diameter in data set [1] is 710 ± 20 ^c nm. For the same molecule, the “Maximum Non-Cytotoxic Concentration L929” value in the data set with L929 mouse fibroblasts stood at 1%. Further, the “Maximum Non-Cytotoxic Concentration HMEC-1” value in data set [2] was determined as 0.2%. Besides, in the data set with blood, the “Maximum Non-Hemolytic Concentration” value stood at 0.5%.

(Values after US20210369846A1 (priority 2018, published 2021).)
